Target: human NaV 1.8 (Homo sapiens, UniProt Q9Y5Y9)
Test: E-VIPR assay detecting and measuring NaV inhibition properties
Type: cell-based
Details: HEK cells expressing a truncated form of human NaV 1.8; electrical stimulation, membrane potential FRET dyes; read-out: measured IC50 value in the E-VIPR Assay
Source text: E-VIPR Assay Detecting and Measuring NaV Inhibition Properties
Sodium ion channels are voltage-dependent proteins that can be activated by inducing membrane voltage changes by applying electric fields. […] The instrument comprises a microtiter plate handler, an optical system for exciting the coumarin dye while simultaneously recording the coumarin and oxonol emissions, a waveform generator, a current- or voltage-controlled amplifier, and parallel electrode pairs that are inserted into assay plate wells. Under integrated computer control, this instrument passes user-programmed electrical stimulus protocols to cells within the wells of the microtiter plate.
16-20 hours prior to running the assay on E-VIPR, HEK cells expressing a truncated form of human NaV 1.8 with full channel activity were seeded into microtiter 384-well plates, pre-coated with matrigel, at a density of 25,000 cells per well. 2.5-5% KIR2.1 BacMam virus was added to the final cell suspension before seeding into cell plates. […] Cells were expanded in 5-layer CellSTACK culture chambers or cell culture flasks with vented caps, with 90-95% humidity and 5% CO2.
• Bath 1 Buffer containing 0.5% 3-cyclodextrin (made fresh prior to each use, Sigma #C4767), […] CC2-DMPE and 2 μM DiSBAC6(3). The solution was made by adding 10% Pluronic F127 stock equal to combined volumes of CC2-DMPE and DiSBAC6(3).
The compound plate was backfilled with 45 μL per well of Compound Loading Buffer resulting in a 240-fold dilution of compound following a 1:1 transfer of compound into the cell plate (see Step 6). […] This assay dilution protocol was adjusted to enable a higher dose range to be tested in the presence of HS or if the final assay volume was altered. • 2) Hexyl Dye Solution was prepared. • 3) Cell plates were prepared. On the day of the assay, the media was aspirated, and the cells were washed three times with 80 μL of Bath-1 buffer, maintaining 25 μL residual volume in each well. • 4) 25 μL per well of Hexyl Dye Solution was dispensed into the cell plates. The cells were incubated for 20 minutes at room temperature or ambient conditions in darkness. • 5) 45 μL per well of Compound Loading Buffer was dispensed into compound plates. • 6) The cell plates were washed three times with 80 μL per well of Bath-1 Buffer, leaving 25 μL of residual volume. Then 25 µL per well from compound plate was transferred to each cell plate. The mixture was incubated for 30 minutes at room temperature/ambient conditions. • 7) The cell plate containing compound was read on E-VIPR using the current-controlled amplifier to deliver stimulation wave pulses using a symmetrical biphasic waveform. […] A pre-stimulus recording was performed for each well for 0.5 seconds to obtain the un-stimulated intensities baseline. The stimulatory waveform was followed by 0.5 seconds of post-stimulation recording to examine the relaxation to the resting state. All E-VIPR responses were measured at 200 Hz acquisition rate.
The response as a function of time was reported as the ratios obtained using the following formula: […]
The data were normalized by calculating the initial (Ri) and final (Rf) ratios. These were the average ratio values during part or all of the pre-stimulation period and during sample points during the stimulation period. The fluorescence ratio (Rf/Ri) was then calculated and reported as a function of time.
Control responses were obtained by performing assays in the presence of the positive control, and in the absence of pharmacological agents (DMSO vehicle negative control). Responses to the negative (N) and positive (P) controls were calculated as above. The compound antagonist % activity A was then defined as:
[formula] • where X is the maximum amplitude of the ratio response or number of action potential peaks, at the beginning of the pulse train in the presence of test compound.

human NaV 1.8, sequence (Q9Y5Y9 126-399 limits assumed): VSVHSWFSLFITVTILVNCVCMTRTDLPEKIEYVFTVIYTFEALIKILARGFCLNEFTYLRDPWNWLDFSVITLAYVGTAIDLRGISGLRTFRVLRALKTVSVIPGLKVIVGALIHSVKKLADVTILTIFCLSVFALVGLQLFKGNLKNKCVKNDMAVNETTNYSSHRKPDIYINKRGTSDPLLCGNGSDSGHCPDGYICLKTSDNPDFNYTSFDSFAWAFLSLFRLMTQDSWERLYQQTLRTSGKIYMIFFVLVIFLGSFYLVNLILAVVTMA
human NaV 1.8, sequence (Q9Y5Y9 660-890 limits assumed): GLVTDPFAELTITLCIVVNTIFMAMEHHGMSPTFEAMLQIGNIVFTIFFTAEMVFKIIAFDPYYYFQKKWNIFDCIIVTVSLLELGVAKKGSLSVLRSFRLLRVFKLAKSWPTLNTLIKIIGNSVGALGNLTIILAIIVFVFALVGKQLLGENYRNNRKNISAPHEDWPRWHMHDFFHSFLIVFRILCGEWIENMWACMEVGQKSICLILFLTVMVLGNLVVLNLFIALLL
human NaV 1.8, sequence (Q9Y5Y9 1148-1722 limits assumed): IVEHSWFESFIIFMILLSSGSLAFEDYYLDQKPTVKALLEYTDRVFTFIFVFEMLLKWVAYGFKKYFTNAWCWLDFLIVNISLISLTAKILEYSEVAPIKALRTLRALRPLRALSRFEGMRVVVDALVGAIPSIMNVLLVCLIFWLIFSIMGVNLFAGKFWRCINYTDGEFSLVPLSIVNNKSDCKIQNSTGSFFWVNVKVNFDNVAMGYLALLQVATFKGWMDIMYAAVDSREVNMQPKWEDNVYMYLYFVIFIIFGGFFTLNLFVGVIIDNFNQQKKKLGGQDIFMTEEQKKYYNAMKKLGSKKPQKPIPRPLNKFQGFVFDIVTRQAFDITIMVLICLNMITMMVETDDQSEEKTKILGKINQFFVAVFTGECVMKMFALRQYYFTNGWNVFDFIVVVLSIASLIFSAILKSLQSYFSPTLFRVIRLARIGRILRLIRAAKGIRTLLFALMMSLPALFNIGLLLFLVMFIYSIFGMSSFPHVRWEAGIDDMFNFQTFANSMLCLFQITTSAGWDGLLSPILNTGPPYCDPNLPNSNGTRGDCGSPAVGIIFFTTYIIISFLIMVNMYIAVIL

| SMILES | IC50 [nM] |
| --- | --- |
| CC(=O)Nc1c(C)[nH]c(-c2ccc(C(C)(C)C)cc2C)cc1=O [Compound 157, N-[6-(4-tert-butyl-2-methyl-phenyl)-2-methyl-4-oxo-1H-pyridin-3-yl]acetamide] | 500 to 2000 |
| Cc1cc(C(C)(C)C)ccc1-c1cc(=O)c(NC(=O)[C@@H](C)N)c(C)[nH]1 [Compound 155, (2R)-2-amino-N-[6-(4-tert-butyl-2-methyl-phenyl)-2-methyl-4-oxo-1H-pyridin-3-yl]propanamide] | 500 to 2000 |
| Cc1cc(C(C)(C)C)ccc1-c1cc(=O)c(C2=CCNCC2)c(C)[nH]1 [Compound 205, 6-(4-tert-butyl-2-methyl-phenyl)-2-methyl-3-(1,2,3,6-tetrahydropyridin-4-yl)-1H-pyridin-4-one] | 500 to 2000 |
| Cc1cc(C(C)(C)C)c(Cl)cc1-c1cc(=O)c(-c2cn(C)c(C)n2)c(C)[nH]1 [Compound 197, 6-(4-tert-butyl-5-chloro-2-methyl-phenyl)-3-(1,2-dimethylimidazol-4-yl)-2-methyl-1H-pyridin-4-one] | 500 to 2000 |
| Cc1cc(=O)cc(-c2ccc(C(C)C)cc2C(C)C)[nH]1 [Compound 43, 2-(2,4-diisopropylphenyl)-6-methyl-1H-pyridin-4-one] | 2000 to 5000 |
| CCOc1c(-c2ccc(C(C)(C)C)cc2C)[nH]c(C)cc1=O [Compound 106, 2-(4-tert-butyl-2-methyl-phenyl)-3-ethoxy-6-methyl-1H-pyridin-4-one] | 500 to 2000 |
| COCn1ccnc1-c1c(C)[nH]c(-c2cc(Cl)c(C(C)(C)C)cc2C)cc1=O [Compound 201, 6-(4-tert-butyl-5-chloro-2-methyl-phenyl)-3-[1-(methoxymethyl)imidazol-2-yl]-2-methyl-1H-pyridin-4-one] | 2000 to 5000 |
| CCOC(=O)c1c(-c2c(C)cc(C(C)(C)C)cc2C)[nH]c(C)c(C)c1=O [Compound 98, ethyl 2-(4-tert-butyl-2,6-dimethyl-phenyl)-5,6-dimethyl-4-oxo-1H-pyridine-3-carboxylate] | 500 to 2000 |
| Cc1[nH]c(-c2ccc(C(C)(C)C)cc2)cc(=O)c1C [Compound 79, 6-(4-tert-butylphenyl)-2,3-dimethyl-1H-pyridin-4-one] | 500 to 2000 |
| Cc1cc(=O)cc(-c2ccc(C3(C(F)(F)F)CC3)cc2C)[nH]1 [Compound 96, 2-methyl-6-[2-methyl-4-[1-(trifluoromethyl)cyclopropyl]phenyl]-1H-pyridin-4-one] | 500 to 2000 |
| Cc1cc(=O)c(C)c(-c2ccc(C(C)(C)C)cc2C)[nH]1 [Compound 75, 2-(4-tert-butyl-2-methyl-phenyl)-3,6-dimethyl-1H-pyridin-4-one] | 500 to 2000 |
| Cc1cc(C(C)(C)C)ccc1-c1cc(=O)c(-c2cccnc2C#N)c(C)[nH]1 [Compound 172, 3-[6-(4-tert-butyl-2-methyl-phenyl)-2-methyl-4-oxo-1H-pyridin-3-yl]pyridine-2-carbonitrile] | 500 to 2000 |
| Cc1cc(=O)c(C)c(-c2ccc(C3(C(F)(F)F)CC3)cc2)[nH]1 [Compound 78, 3,6-dimethyl-2-[4-[1-(trifluoromethyl)cyclopropyl]phenyl]-1H-pyridin-4-one] | 2000 to 5000 |
| Cc1cc(C(C)(C)C)ccc1-c1cc(=O)c(C2=CCN(C)CC2)c(C)[nH]1 [Compound 174, 6-(4-tert-butyl-2-methyl-phenyl)-2-methyl-3-(1-methyl-3,6-dihydro-2H-pyridin-4-yl)-1H-pyridin-4-one] | 2000 to 5000 |
| Cc1cc(C(C)(C)C)c(Cl)cc1-c1cc(=O)c(-c2ncc[nH]2)c(C)[nH]1 [Compound 212, 6-(4-tert-butyl-5-chloro-2-methyl-phenyl)-3-(1H-imidazol-2-yl)-2-methyl-1H-pyridin-4-one] | 500 to 2000 |
| COc1cc(=O)cc(-c2ccc(C(C)(C)C)cc2C)[nH]1 [Compound 104, 2-(4-tert-butyl-2-methyl-phenyl)-6-methoxy-1H-pyridin-4-one] | 2000 to 5000 |
| Cc1cc(C(C)(C)C)ccc1-c1cc(=O)cc(N(C)C)[nH]1 [Compound 100, 2-(4-tert-butyl-2-methyl-phenyl)-6-(dimethylamino)-1H-pyridin-4-one] | 500 to 2000 |
| Cc1[nH]c(-c2ccc(C3(C(F)(F)F)CC3)cc2)cc(=O)c1C [Compound 82, 2,3-dimethyl-6-[4-[1-(trifluoromethyl)cyclopropyl]phenyl]-1H-pyridin-4-one] | 500 to 2000 |
| Cc1cc(C(C)(C)C)ccc1-c1cc(=O)c(NC(=O)[C@H](C)N)c(C)[nH]1 [Compound 156, (2S)-2-amino-N-[6-(4-tert-butyl-2-methyl-phenyl)-2-methyl-4-oxo-1H-pyridin-3-yl]propanamide] | 2000 to 5000 |
| COc1nc2ccccc2cc1-c1cc(=O)c(C)c(C)[nH]1 [Compound 95, 6-(2-methoxy-3-quinolyl)-2,3-dimethyl-1H-pyridin-4-one] | 2000 to 5000 |
| Cc1cc(C(C)(C)C)ccc1-c1cc(=O)c(C2CCN(C)CC2)c(C)[nH]1 [Compound 204, 6-(4-tert-butyl-2-methyl-phenyl)-2-methyl-3-(1-methyl-4-piperidyl)-1H-pyridin-4-one] | 500 to 2000 |
| Cc1nc(-c2ccc(C(C)(C)C)cc2C)cc(=O)[nH]1 [Compound 83, 4-(4-tert-butyl-2-methyl-phenyl)-2-methyl-1H-pyrimidin-6-one] | 2000 to 5000 |
| Cc1cc(=O)cc(-c2c(C)cc(C(C)(C)C)cc2C)[nH]1 [Compound 3, 2-(4-tert-butyl-2,6-dimethyl-phenyl)-6-methyl-1H-pyridin-4-one] | 500 to 2000 |
| Cc1cc(C(C)(C)C)ccc1-c1cc(=O)c(CN)c(C)[nH]1 [Compound 154, 3-(aminomethyl)-6-(4-tert-butyl-2-methyl-phenyl)-2-methyl-1H-pyridin-4-one] | 500 to 2000 |
| Cc1cc(=O)c(C)c(-c2ccc(C(C)(C)C)cc2)[nH]1 [Compound 77, 2-(4-tert-butylphenyl)-3,6-dimethyl-1H-pyridin-4-one] | 500 to 2000 |
| COc1c(-c2ccc(C(C)(C)C)cc2C)[nH]c(C)cc1=O [Compound 107, 2-(4-tert-butyl-2-methyl-phenyl)-3-methoxy-6-methyl-1H-pyridin-4-one] | 500 to 2000 |
| Cc1cc(C(C)(C)C)c(Cl)cc1-c1cc(=O)c(S(=N)(=O)C(C)C)c(C)[nH]1 (stereo not drawn) [Compound 145, 6-(4-tert-butyl-5-chloro-2-methyl-phenyl)-3-(isopropylsulfonimidoyl)-2-methyl-1H-pyridin-4-one] | 500 to 2000 |

Source: patent US20250388541A1, “HETEROARYL COMPOUNDS FOR THE TREATMENT OF PAIN” (VERTEX PHARMACEUTICALS INCORPORATED, priority 2022, published 2025)
